In one assay the test system is MelJuSo cells. As to the kind of experiment: Cell cycle distribution analysis (PI, flow cytometry), MelJuSo. Format: cell-based, human. The settings on record: 6 μM, 24 h. As to the method:
Cell cycle analysis in melanoma cells treated with GC2 was performed by determining DNA content using propidium iodide (PI) staining. PI intercalates into the major groove of double stranded DNA and produces a highly fluorescent adduct that can be excited at 488 nm and with a broad emission centered at 600 nm, see e.g. Krishan A. J. Cell. Biol. 66, 188, 1975. Melanoma cells (20×10^4) were cultured in 25 cm^2 tissue culture flasks for 24 h, followed by a further incubation for indicated time periods with 6 μM GC2. After treatment, adherent cells were trypsinized and a number of viable cells was determined by trypan blue exclusion. […] cells were re-suspended in 200 μl FACS buffer (2% FCS in PBS) and fixed with 600 μl absolute methanol, dropwise added under gentle vortexing, for at least 2 h at −20° C. Fixed cells were washed with FACS buffer, centrifuged for 5 min at 1500 rpm, at 4° C., and incubated for 30 min, in the dark, at room temperature (RT) with 200 μl PI staining solution in 3.8 mM sodium citrate (10 μl RNaze 10 μg/ml previously boiled for 5 min and 1 μl PI 10 mg/ml). The staining solution was removed by centrifugation and the cell pellet was re-suspended in 200 μl FACS buffer. Samples were analyzed for DNA content using a FACScan™ using CellQuest™ software (Becton Dickinson, San Jose, Calif.). […]

The subject of assay [1] is MMP-2 secreted by T11 glioblastoma multiform cells. The experiment in a line: MMP analysis by SDS-PAGE gelatin zymography. In kind it is cell-based. The settings on record: 20 h. As to the method:
T11 cells were grown in a complete DMEM medium until they reached 80% confluency. The cells were washed using DMEM medium without serum and incubated for 20 h with various concentrations of GC2 shown in preliminary experiments not to affect cell viability. The culture medium was collected, centrifuged at 2000 rpm, for 5 min, to remove the cells in suspension. The culture medium was further concentrated five times by ultrafiltration on centricon membranes (molecular weight cut off 30,000 from Milipore). Three parts of medium containing equal amounts of protein (20 μg) were mixed with one part of Laemmnli buffer without reducing agent. Samples were applied on a gel of 8% polyacrylamide impregnated with 0.5 mg/ml denaturated type I collagen (gelatin) and separated electrophoretically. […]
To investigate if GC2 treatment interferes with secretion of MMPs a glioblastoma multiform cell line, T11 previously tested for its capacity to secrete MMP-2 was used. Cells were cultured for 20 h in the presence of different concentrations of GC2, established by preliminary experiments to be nontoxic for this cell line, and medium was concentrated and analyzed by Sodium Dodecyl Sulphate PolyAcrylamide Gel Electrophoresis (SDS-PAGE) gelatin zymography. […]

A further assay relates to SKMel28 cells. The experiment in a line: Acidic vesicular organelles, Lysotracker Red vital staining. The settings on record: SKMel28, 6 μM, 3 h and 8 h. In kind it is cell-based. As to the method:
(§1) Tumor cells were cultured 24 h on cover glasses, treated with GC2, and processed as described in Negroiu, G., et al. J. Biol. Chem. 278, 27035-27042, 2003. The acidic vesicular compartments were detected following incubation of live cells GC2 treated with Lysotracker® Red (0.125 μl/ml culture medium) for 30 min at 37° C. Fixed cells were incubated with the following primary antibodies: mouse anti-EEA1 (1:100), human-CD107A (anti-Lamp1) (1:50), a mouse anti-α tubulin (1:200) followed by an appropriate Alexa Fluor® 488 conjugated secondary antibodies (1:400) or with Alexa Fluor® 594 phalloidin. Finally, nuclei of fixed cells were stained with 5 mM Hoechst dye 33342. Cells were washed three times with PBS and mounted in Vectashield® mounting medium.
Acidic compartments of untreated and GC2-treated tumor cells were differentiated using a lysosomotropic agent LysoTracker® Red (LT), a marker for tracking acidic organelles in live cells. These probes can be used to investigate the acidification of lysosomes and alteration of their function or trafficking that occur in the cell. In untreated SKMel28 cells (FIG. 5Aa) the LT probe has a moderate fluorescence as fine punctate structures distributed within the entire cell cytoplasm and occasionally at the cell periphery.

For assay [2], the system named is actin network in SKMel28 and MelJuSo cells. As to the kind of experiment: Actin staining with Alexa Fluor 594 phalloidin, fluorescence microscopy. Format: cell-based. The settings on record: 6 μM, 3 h. Here is the method:
as §1
Whether tumor cell compartments and cytoskeletal elements are altered by GC2 treatment was analysed utilizing molecular markers for two main cell compartments: 1) EEA1 for early endosomes, which are accessed first by all endocytosed molecules and 2) Lamp-1 for lysosomes, the major degradative compartment. Actin filaments were labeled with Alexa Fluor® 594 phalloidin and microtubules with an anti-α-tubulin antibody; all samples were analyzed by fluorescence microscopy. […] Following GC2 treatment both endocytic markers were redistributed in large substructures detected also by phase contrast microscopy. […]

For the compound `CC(=O)O.CCCCCCCCCN1[C@@H](CO)[C@@H](O)[C@H](O)[C@@H]1CCCCCCCC` [GC2, (2S,3R,4R,5S)-3,4-dihydroxy-N-nonyl-5-octyl-2 hydroxymethylpyrrolidinium acetate], the “number of cells in G2 phase” value in the assay on MelJuSo cells (untreated 17.7%) was determined as 8.48%. The “proportion of surviving cells in G0/G1 phase” value in the assay with MelJuSo cells (untreated 51.20%) is reported as 60.00%. In addition, the “intensity of the MMP-2 band” value in assay [1] (0.65 μM, 1.25 μM, 2.5 μM and 5 μM) is recorded as “decreasing in a concentration dependent manner”. Besides, in assay [1] (5 μM), the MMP-2 secretion entry was “total inhibition”. Further, the “Lysotracker Red probe distribution (acidic vesicles)” value in the assay with SKMel28 cells is given as “accumulates in large, bright red fluorescent vesicles in a time dependent manner”. In addition, the “pattern of the fluorescent actin marker” value in assay [2] is recorded as “disrupted”.

The record behind these values is patent US8957106B2, “Iminosugar treatment of tumors” (The Chancellor, Masters and Scholars of the University of …, priority 2007, dated 2015).
